≈ marks a conversion by molar mass, not a printed value. Like-named read-outs stand apart in the source and are kept apart here.
Assays:
Type in all cases: cell-based
C. neoformans H99 [1] = assay: Broth microdilution antifungal assay (MIC) in RPMI or urea medium; settings: Cryptococcus neoformans
Protocol: (§1) C. neoformans H99 (or ATCC 208821), a standard strain, was used to evaluate the antifungal activity of BSU1-BSU11 and BTU1-BTU11 compounds using the broth microdilution method. The assay was performed in two different culture media: the standard medium RPMI 1640 buffered with […] (RMPI), and the Christensen broth (urea medium: 1 g/L peptone, 1 g/L dextrose, 5 g/L sodium chloride, 2 g/L potassium phosphate, 20 g/L urea, 12 mg/L phenol red, pH 7.0). The compounds were dissolved in dimethyl sulfoxide (DMSO) and diluted in both media, obtaining final concentrations from 0.03 to 128 mg/L in a 96-well plate and final DMSO concentration below 0.5%, considered nontoxic. For assay, yeasts were distributed in each well to obtain a final inoculum of 0.5–2.5 × 10^3 CFU/mL, and the plate was incubated at 35 °C for 48 h.
(§2) The MIC values were determined in both media and were defined as the lowest concentrations of BSU1-BSU11 and BTU1-BTU11 that inhibited 50% of fungal growth visually compared with untreated yeasts (growth control). In addition, the urease activity was indicated by medium color change from orange to pink due to ammonia production and the MICure was defined as the lowest concentration that inhibited the urease activity by visual inspection in urea medium with no color changes. For both assays, two controls were included: untreated yeast group for observation of fungal growth pattern or intracellular urease activity, and wells containing only medium for assay sterility control.

yeast urease activity = biological target: T1, yeast urease activity (Cryptococcus neoformans, UniProt O13465); assay: Inhibition of yeast urease activity in urea (Christensen) medium, colour change (MICure)
T1 construct: endogenous in cells; host or cells: Cryptococcus neoformans H99 (ATCC 208821) yeasts in Christensen urea broth
Protocol: The inhibitory activity against yeast urease was assessed using Christensen’s medium, which contains urea to induce URE1 gene expression. […] Even in the presence of fungal growth, inhibition of urease activity was evidenced by the absence of medium color change, indicating suppressed ammonia production.
as §1, §2

C. neoformans H99 [2] = assay: Minimum fungicidal concentration by subculturing after MIC reading; settings: Cryptococcus neoformans
Protocol: After MIC readings, the MFC values were determined by subculturing, at 35 °C for 48 h, of all concentrations that inhibited the fungal growth; and then MFC was defined as the lowest concentration of the compound capable of reducing ≥99% viability of the initial fungal inoculum. ,

[3] = H99, BTU series, 50% inhibition of fungal growth, RPMI medium, read-out: MIC RPMI
[4] = H99, BTU series, 50% inhibition of fungal growth, urea medium, read-out: MIC urea
[5] = H99, Table S1, RPMI medium, C. neoformans H99, read-out: MIC
[6] = H99, Table S1, urea medium, C. neoformans H99, read-out: MIC
[7] = BTU series, 100% inhibition of yeast urease activity in urea medium
[8] = Table S1, urea medium, 100% inhibition of yeast urease activity
[9] = H99, BTU series, after assay in RPMI medium, read-out: MFC
[10] = H99, Table S1, RPMI medium line, read-out: MFC
[11] = H99, Table S1, urea medium line, read-out: MFC
[12] = H99, Table S1, RPMI medium, C. neoformans H99
[13] = H99, Table S1, urea medium, C. neoformans H99
[14] = H99, read-out: MIC RPMI, BTU series, 50% inhibition of fungal growth, RPMI medium
[15] = H99, read-out: MIC urea, BTU series, 50% inhibition of fungal growth, urea medium
[16] = H99, BTU series, after assay in RPMI medium
[17] = H99, Table S1, RPMI medium line
[18] = H99, Table S1, urea medium line

T1 sequence (O13465 whole entry): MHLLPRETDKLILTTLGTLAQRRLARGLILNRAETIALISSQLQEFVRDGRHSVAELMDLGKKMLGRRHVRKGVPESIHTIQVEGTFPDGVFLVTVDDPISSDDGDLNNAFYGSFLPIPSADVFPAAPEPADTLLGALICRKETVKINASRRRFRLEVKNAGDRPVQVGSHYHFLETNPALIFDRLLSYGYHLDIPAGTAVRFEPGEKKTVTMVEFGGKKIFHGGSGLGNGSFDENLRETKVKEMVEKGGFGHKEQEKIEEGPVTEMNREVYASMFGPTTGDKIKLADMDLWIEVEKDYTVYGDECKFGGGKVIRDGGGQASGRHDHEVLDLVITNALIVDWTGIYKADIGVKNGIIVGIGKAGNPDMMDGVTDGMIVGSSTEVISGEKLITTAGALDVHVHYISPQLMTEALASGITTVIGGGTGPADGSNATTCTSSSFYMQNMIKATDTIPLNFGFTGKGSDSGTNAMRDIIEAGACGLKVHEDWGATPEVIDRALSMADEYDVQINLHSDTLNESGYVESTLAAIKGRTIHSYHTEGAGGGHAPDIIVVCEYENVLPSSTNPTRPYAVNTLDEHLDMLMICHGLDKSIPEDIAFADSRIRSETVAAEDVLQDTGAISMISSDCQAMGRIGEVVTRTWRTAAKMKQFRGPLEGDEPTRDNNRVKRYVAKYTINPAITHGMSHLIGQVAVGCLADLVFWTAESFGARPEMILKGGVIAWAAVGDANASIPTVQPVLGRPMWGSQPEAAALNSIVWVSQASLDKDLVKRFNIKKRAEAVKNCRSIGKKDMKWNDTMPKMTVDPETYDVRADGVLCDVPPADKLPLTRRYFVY

Row | Structure (SMILES) | MIC (C. neoformans H99 [1]; [3]) | MIC (C. neoformans H99 [1]; [4]) | MIC (C. neoformans H99 [1]; [5]) | MIC (C. neoformans H99 [1]; [6]) | MICURE (yeast urease activity; [7]) | MICURE (yeast urease activity; [8]) | MFC (C. neoformans H99 [2]; [9]) | MFC (C. neoformans H99 [2]; [10]) | MFC (C. neoformans H99 [2]; [11]) | MIC (C. neoformans H99 [1]; [12]) | MIC (C. neoformans H99 [1]; [13]) | MIC (C. neoformans H99 [1]; [14]) | MIC (C. neoformans H99 [1]; [15]) | MFC (C. neoformans H99 [2]; [16]) | MFC (C. neoformans H99 [2]; [17]) | MFC (C. neoformans H99 [2]; [18])
1 | Cc1ccc(NC(=S)NC(=O)c2ccccc2)cc1 [BTU2] | > 128 µg/mL | 32 µg/mL (≈ 118 µM) | > 128 µg/mL | 32 µg/mL (≈ 118 µM) | <0.25 mg/L | ≤ 0.25 mg/L | > 128 µg/mL | > 128 µg/mL | > 128 µg/mL |  |  |  |  |  |  | 
2 | CC(C)(C)c1ccc(NC(=S)NC(=O)c2ccccc2)cc1 [BTU3] | 8 µg/mL (≈ 25.6 µM) | 1 µg/mL (≈ 3.2 µM) | 8 µg/mL (≈ 25.6 µM) | 1 µg/mL (≈ 3.2 µM) | 0.5 mg/L | 0.5 mg/L | > 128 µg/mL | > 128 µg/mL | 128 µg/mL (≈ 410 µM) |  |  |  |  |  |  | 
3 | COc1ccccc1NC(=S)NC(=O)c1ccccc1 [BTU4] | > 128 µg/mL | 64 µg/mL (≈ 223 µM) | > 128 µg/mL | 1 µg/mL (≈ 3.49 µM) | 32 mg/L | ≤ 0.25 mg/L | > 128 µg/mL | > 128 µg/mL | > 128 µg/mL |  |  |  |  |  |  | 
4 | COc1cccc(NC(=S)NC(=O)c2ccccc2)c1 [BTU5] | 32 µg/mL (≈ 112 µM) | 4 µg/mL (≈ 14 µM) | > 128 µg/mL | 4 µg/mL (≈ 14 µM) | 4 mg/L | ≤ 0.25 mg/L | > 128 µg/mL | > 128 µg/mL | > 128 µg/mL |  |  |  |  |  |  | 
5 | O=C(NC(=S)Nc1ccc(Cl)cc1)c1ccccc1 [BTU6] | > 128 µg/mL | 1 µg/mL (≈ 3.44 µM) | > 128 µg/mL | 32 µg/mL (≈ 110 µM) | <0.25 mg/L | ≤ 0.25 mg/L | > 128 µg/mL | > 128 µg/mL | 128 µg/mL (≈ 440 µM) |  |  |  |  |  |  | 
6 | O=C(NC(=S)Nc1cccc(Cl)c1)c1ccccc1 [BTU7] | > 128 µg/mL | 4 µg/mL (≈ 13.8 µM) | > 128 µg/mL | 32 µg/mL (≈ 110 µM) | <0.25 mg/L | 2 mg/L | > 128 µg/mL | > 128 µg/mL | 64 µg/mL (≈ 220 µM) |  |  |  |  |  |  | 
7 | O=C(NC(=S)Nc1ccc(Br)cc1)c1ccccc1 [BTU8] | > 128 µg/mL | 32 µg/mL (≈ 95.5 µM) | > 128 µg/mL | 64 µg/mL (≈ 191 µM) | <0.25 mg/L | 32 mg/L | > 128 µg/mL | > 128 µg/mL | > 128 µg/mL |  |  |  |  |  |  | 
8 | O=C(NC(=S)Nc1cccc(Br)c1)c1ccccc1 [BTU9] | > 128 µg/mL | 32 µg/mL (≈ 95.5 µM) | 32 µg/mL (≈ 95.5 µM) | 4 µg/mL (≈ 11.9 µM) | 2 mg/L | 4 mg/L | > 128 µg/mL | > 128 µg/mL | 32 µg/mL (≈ 95.5 µM) |  |  |  |  |  |  | 
9 | O=C(NC(=S)Nc1ccccc1[N+](=O)[O-])c1ccccc1 [BTU10] |  |  |  |  | >128 mg/L | > 128 mg/L |  |  |  | > 128 µg/mL | > 128 µg/mL | > 128 µg/mL | > 128 µg/mL | > 128 µg/mL | > 128 µg/mL | > 128 µg/mL
10 | O=C(NC(=S)Nc1cccc([N+](=O)[O-])c1)c1ccccc1 [BTU11] |  |  |  |  | >128 mg/L | > 128 mg/L |  |  |  | > 128 µg/mL | > 128 µg/mL | > 128 µg/mL | > 128 µg/mL | > 128 µg/mL | > 128 µg/mL | > 128 µg/mL

Reference: publication PMC12461339, “Benzoylselenoureas: A Novel Dual-Action Inhibitor Targeting Fungal Growth and Urease Activity in Cryptococcus neoformans” (ACS Omega, 2025)
